The values below come from PubChem BioAssay (NCI).

What all share (experiment): NCI anticancer screen, dose series, 48 h
The subject of test [1] is HCT-15 colon.
Test [2] concerns SK-OV-3 ovarian.
For test [3], the system named is SN12C renal.
Test [4] has as its system MDA-MB-231 breast.
For test [5], the system named is CAKI-1 renal.
Test [6] relates to SW-620 colon.
Test [7] relates to OVCAR-8 ovarian.
Test [8] has as its system HOP-92 NSCLC.
For test [9], the system named is MOLT-4 leukemia.
Test [10] concerns NCI-H460 lung.
In test [11] the test system is OVCAR-4 ovarian.
Test [12] relates to A549 NSCLC.
In test [13] the test system is TK-10 renal.

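Tested at 5 concentrations; 48 h exposure; 96-well plates; endpoints linearly interpolated, else capped at highest concentration. GI50 marks 50% less growth. At the TGI there is no net growth.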

On to `C=CC(=O)N1CCN(c2nc(OC[C@@H]3CCCN3C)nc3c2CCN(c2cccc4cccc(C)c24)C3)C[C@@H]1CC#N`, for which the GI50 in test [1] is 1.45 µM; in [2], 1.68 µM; in [3], 1.46 µM; in test [4] it was 1.39 µM; in [5] it was 1.18 µM. Also, the TGI in test [1] worked out at 2.92 µM; in test [2], 3.17 µM; in test [3] it was 2.87 µM; in [4] it was 2.78 µM; in [5] it was 2.46 µM.
Turning to `c1ccc(C(c2ccccc2)[P+](c2ccccc2)(c2ccccc2)c2ccccc2)cc1`, the TGI in test [6] was 13.2 µM; in test [1], 17.9 µM; in test [2], 2.68 µM; in test [7], 13.5 µM; in [8] it was 2.79 µM; in [9] it was 4.06 µM. Further, the TGI in test [10] turned out to be 11.5 µM; in test [3], 11.7 µM; in [11], 10 µM; in test [5], 8.47 µM; in test [12], 14.6 µM.
Consider `CCCCCCCCCCCCCCCC[N+](C)(C)CCN(Cc1ccc(OC)cc1)c1ncccn1`, for which the GI50 in [1] was 18.6 µM; in [2], 2.24 µM; in test [4], 2 µM; in [11], 1.85 µM; in test [5] it was 8.14 µM. The TGI in test [1] worked out at 60.1 µM; in [2], 7.24 µM; in test [4] it was 4.94 µM; in test [11] it was 4.88 µM; in test [5] it was 34 µM.
As to `COc1ccccc1N1C(Cl)C(=O)C1c1c[nH]c2ccccc12` (configuration not stated), the TGI in test [6], in test [2], in test [7], in test [8], in test [9] and in test [10] was over 100 µM each time. Besides, the TGI in test [3], in [11], in [13] and in test [12] was over 100 µM each time.
Take `Nc1ccc(C2NC(=O)Cc3c2ccc2ccccc32)cc1` (configuration not stated): the TGI in test [6], in [1], in test [2], in [7], in [8] and in test [9] was over 100 µM each time. Also, the TGI in test [10], in test [11], in test [5], in [13] and in [12] was over 100 µM each time.
Regarding `Cc1ccc2cc3c(ccc4ccccc43)c3c2c1CC3`, the TGI in test [6], in test [1], in test [2], in [7], in test [8] and in [9] was over 100 µM each time. The TGI in [10], in test [3], in [4], in test [11], in test [5] and in [13] was over 100 µM throughout. In addition, the TGI in test [12] was over 100 µM. For the same compound, the GI50 in test [11] is over 100 µM.
As for `COc1ccc2oc(=O)cc(C)c2c1`, the TGI in [6], in [7], in test [8], in test [9], in test [10] and in test [3] was over 100 µM each time. Also, the TGI in test [4], in test [11], in test [5], in [13] and in test [12] was over 100 µM in each case.
`O=C(O)C(O)Cc1ccccn1` (configuration not stated): the TGI in [6], in test [1], in [2], in test [7], in [8] and in [10] was over 100 µM each time. For the same compound, the TGI in test [4], in [11], in test [5], in test [13] and in test [12] was over 100 µM in each case.
With `CCCCNc1c(CN)cnc2cc(Cl)ccc12`, the TGI was 33.5 µM in test [6]; 33.1 µM in test [1]; 31.6 µM in test [2]; 33.8 µM in test [7]; 35.1 µM in [8]; 36.5 µM in [9]. The TGI was determined as 25.8 µM in test [10]; 37.9 µM in test [3]; 30 µM in test [4]; 40.1 µM in [11]; 65.7 µM in [5]; 30.2 µM in test [13]. The compound further gave a TGI in [12] of 41.5 µM.
Consider `CN(C)CCCNc1ncnc2nc[nH]c12`, for which the TGI in test [6], in test [1], in [2], in test [7], in test [8] and in test [9] was over 100 µM each time. Besides, the TGI in [10], in test [3], in test [4], in [11], in test [5] and in test [13] was over 100 µM throughout. The compound also gave a TGI in test [12] of over 100 µM.
In the case of `NC(=O)NO`, the TGI was over 2500 µM in [6]; 2360 µM in [1]; over 2500 µM in test [2]; over 2460 µM in test [7]; 2330 µM in test [8]; 2100 µM in test [9]. Besides, the TGI in test [10] is 2040 µM; in test [3], 2390 µM; in [4], over 1410 µM; in test [11], over 2500 µM; in [5], 1720 µM; in test [13], over 2500 µM. For the same compound, the TGI in [12] is 2340 µM.
Take `FC(F)(F)C(C1=NC(C(F)(F)F)(C(F)(F)F)N=C(N2CCOCC2)O1)C(F)(F)F`: the TGI was 41.9 µM in test [6]; over 100 µM in test [1]; over 100 µM in test [2]; 47.3 µM in [7]; over 100 µM in test [8]; over 100 µM in test [9]. The TGI is over 100 µM in test [10]; 36.1 µM in test [3]; 36.1 µM in test [4]; 66.1 µM in test [11]; 61.6 µM in [5]; 83.6 µM in test [13]. The same compound showed a TGI in test [12] of 62.8 µM.
As to `O=C(c1ccccc1)[C@H]1Nc2ccc(Cl)cc2[C@H]2OCCC[C@@H]12`, the TGI turned out to be 39.1 µM in [6]; 43.8 µM in test [1]; 41.9 µM in test [7]; 61.7 µM in test [9]; 34.5 µM in test [10]; 37.5 µM in test [3]. Besides, the TGI in test [11] was 45 µM; in test [5] it was 63 µM; in test [13] it was 64.6 µM.
Regarding `CC(=O)Oc1ccc2c(C)cc(=O)oc2c1`, the TGI in test [6], in test [1], in test [2], in test [7], in test [8] and in test [9] was over 100 µM throughout. Moreover, the TGI in test [10], in test [3], in test [4], in test [11], in [5] and in test [13] was over 100 µM in each case. In test [12], this compound displayed a TGI of over 100 µM.
Consider `O=C(O)CSCC(=O)O`, for which the TGI in test [6], in test [1], in test [7], in [8], in test [9] and in test [10] was over 100 µM in each case. Also, the TGI in [3], in test [4], in test [11], in test [5], in test [13] and in test [12] was over 100 µM throughout.
Consider `CS/C(=N\C(=S)Nc1ccccc1)Nc1ccccc1`, for which the TGI in test [6] is over 100 µM; in test [1], 58.1 µM; in test [2] it was 58.9 µM; in test [7] it was 77.4 µM; in test [9] it was 85.7 µM; in [10] it was 48.7 µM. Moreover, the TGI in [3] is 67.6 µM; in [11], over 100 µM; in test [5], 54.7 µM; in [13], 54.7 µM; in test [12], 59.2 µM.
With `C=CCOC1OC(CS(=O)(=O)O)C(O)C(O)C1O` (configuration not stated), the TGI in test [6], in test [1], in test [2], in [7], in [8] and in test [9] was over 100 µM in each case. The TGI in [10], in [3], in [4], in [11], in [5] and in test [13] was over 100 µM throughout.
